The values below are quoted from earlier work in publication PMC5959268 (Journal of medicinal chemistry, 2016).

For one data set, the system named is hair regrowth. Conditions: aging CRF-overexpressing mice.
For data set [1], the system named is CRF-stimulated ACTH release by cultured rat anterior pituitary cells. The following applies: rat pituitary cells in culture and adrenalectomized rats.
The target in the next data set is CRF-R1. Conditions: read-out: Kd of tracer at CRF-R1; saturation binding of radioligand.

Structures can show the parent of a compound that is named as a salt. *1 amine or outer side, *2 acyl side, *3 side chain or, on linkers, in order; H or OH if unused. Where no end group is shown, it is not given here. [ ]: non-standard residue; d: D form. Tyr(125I) = tyrosine labelled with iodine-125, O=C([C@H](Cc1ccc(O[*:3])c([125I])c1)N[*:1])[*:2]

As to `CCCCN(CC)c1nc(C)nc2c1c(C)c(C)n2-c1c(C)cc(C)cc1C` [antalarmin, N-butyl-N-ethyl-2,5,6-trimethyl-7-(2,4,6-trimethylphenyl)-7H-pyrrolol[2,3-d]pyrimidin-4-amine hydrochloride], the hair regrowth result in the data set with hair regrowth is recorded as “spotty results”. On to `Nc1cc(N2CCCCC2)nc(N)[n+]1[O-]` [minoxidil, 2,4-pyrimidinediamine, 6-(1-piperidinyl)-, 3-oxide], for which the hair regrowth entry with hair regrowth is “spotty results”. [D-Phe^12,Nle^21,38]-h/rCRF(12–41): in data set [1], the “potency relative to α-helical-CRF(9–41) at inhibiting release of ACTH” value is ~ 18 times. Consider “[^125ITyr^0-Glu^1]-PD-Svg YEGTSLDLTFDLLRHNLEIAKQEALKKQAAKNRLLLDTI-NH2 ([Tyr(125I)]EGTSLDLTFDLLRHNLEIAKQEALKKQAAKNRLLLDTI-NH2)”, for which, on CRF-R1, the Kd is 0.42 nM.

One may read the Kd as the constant that tells how readily two partners part at equilibrium.
